Earlier results on eleven compounds are cited in patent publication US20240350374A1, “COMPOSITION AND METHODS OF TREATMENT USING TRANSDERMAL SUPPLEMENTATION” (Xygenyx Inc., priority 2023, published 2024).

Where a SMILES comes first, the peptide text is derived from it.

For data set [1], the system named is skin. To be noted: as penetration enhancer.
For data set [2], the system named is wide dynamic range neurons in the ventroposterolateral nucleus of the thalamus. The settings on record: believed.
The test system of data set [3] is skin. The settings on record: topical application, concentrations 0.5-5%.
Data set [4] has as its system skin. To be noted: topical formulations, within four weeks of treatment.
The conditions of data set [5]: compared to α-tocopherol = 1.0.
For the next data set, the system named is F2-isoprostane. To be noted: large doses of 1600-3200 IU/day.
In another data set the test system is rheumatoid arthritis. To be noted: arthritic subjects.
For data set [6] the following is noted: even when dietary intake occurs in equal portions.
The next data set relates to markers of inflammation. To be noted: supplementation, individuals with metabolic syndrome.
The conditions of data set [7]: in vivo.

As to `CC(C)[C@@H]1CC[C@@H](C)C[C@H]1O` [Menthol], in the data set on skin [1], the “factor of increase of transdermal drug uptake / penetration” value is listed as at least 10. As to `CCCCCc1cc(O)c2c(c1)OC(C)(C)C1CCC(C)=CC21` (stereo not shown) [THC, Δ-9-tetrahydrocannabinol], the “power in mediating pain relative to morphine” value in data set [2] is on record as “ten times more powerful than morphine”.

With `C=CCCCCCCCCC(=O)N[C@@H](Cc1ccccc1)C(=O)O` [UP, Undecylenoyl phenylalanine], the “time to skin lightening effects” value with skin [3] was at least 7 days. On to `CC12CCC(CC1)C(C)(C)O2` [eucalyptol, 1,8-epoxy-p-menthane], for which, in the data set with skin [1], the “factor of increase of transdermal drug uptake / penetration” value is listed as “more than 10”. In the case of `CC[C@H](C)[C@H](NC(=O)[C@H](CC(=O)O)NC(=O)[C@@H](N)CCCCN)C(=O)N[C@@H](CCCNC(N)=O)C(N)=O` [tripeptide-10 citrulline, Tripeptide-10 citrulline] (HELM PEPTIDE1{K.D.I.[Cit].[am]}$$$$V2.0), the improvement of suppleness with skin [4] is at most 54%. Regarding `Cc1c(C)c2c(c(C)c1O)CC[C@@](C)(CCC[C@H](C)CCC[C@H](C)CCCC(C)C)O2` [α-tocopherol], the relative biological activity in data set [5] is reported as 1.0. Also, the “reduction of risk of coronary disease” value (dietary supplementation, doses up to 400 IU/day) is “up to 34%”. In addition, for the setting “dietary supplementation, doses up to 400 IU/day, controlled trials”, the “reduction of risk of developing neurodegenerative diseases (Alzheimer's Syndrome or dementia)” value is recorded as at most 24%. Also, the “reduction in the development of age-related cataracts” value (in combination with 10-20 mg β-carotene and 400-500 mg vitamin C, doses around 400-500 IU) is 23%. Moreover, in the data set with F2-isoprostane, the “blood plasma concentration of F2-isoprostane” value was “significantly lower”.

Turning to `C=C1CC/C=C(\C)CC[C@@H]2[C@@H]1CC2(C)C` [β-caryophyllene], in the data set with rheumatoid arthritis, the “increases of protein carbonyl groups and myeloperoxidase activity in liver and plasma” value is reported as “eliminated”; the “number of circulating and articular leukocytes” value is reported as “reduced”; the “swelling of joints and lymph nodes” value is given as “reduced”. For the compound `Cc1cc(O)c(C)c2c1O[C@](C)(CCC[C@H](C)CCC[C@H](C)CCCC(C)C)CC2` [β-tocopherol], the relative biological activity in data set [5] is recorded as 0.5. For `Cc1c(O)cc2c(c1C)O[C@](C)(CCC[C@H](C)CCC[C@H](C)CCCC(C)C)CC2` [γ-tocopherol], the relative biological activity in [5] is listed as 0.1. Besides, the “concentration in vivo relative to α-tocopherol” value in data set [6] is “roughly 10%”. In the case of `Cc1cc(O)cc2c1O[C@](C)(CCC[C@H](C)CCC[C@H](C)CCCC(C)C)CC2` [δ-tocopherol], the relative biological activity in data set [5] is on record as 0.03. Further, the “markers of inflammation in the blood” value in the data set with markers of inflammation is reported as “reduced”. As for “HGH: hormone comprising a peptide chain that is synthesized in the pituitary gland”, the biological half-life in [7] is on record as 10-20 minutes.
